In article PMC11551755, “Structure-based discovery of first inhibitors targeting the helicase activity of human PIF1” (Nucleic Acids Research, 2024):

Molecular target: T1, FLhPIF1 (Homo sapiens, UniProt Q9H611)
T1 construct: Full length human PIF1 (FLhPIF1) was expressed and purified as a His-SUMO fusion; His-SUMO (cleaved yes); made in house; 'following similar protocols' to hPIF1HD (ArcticExpress BL21(DE3) E. coli)
T1 sequence (Q9H611 1-641): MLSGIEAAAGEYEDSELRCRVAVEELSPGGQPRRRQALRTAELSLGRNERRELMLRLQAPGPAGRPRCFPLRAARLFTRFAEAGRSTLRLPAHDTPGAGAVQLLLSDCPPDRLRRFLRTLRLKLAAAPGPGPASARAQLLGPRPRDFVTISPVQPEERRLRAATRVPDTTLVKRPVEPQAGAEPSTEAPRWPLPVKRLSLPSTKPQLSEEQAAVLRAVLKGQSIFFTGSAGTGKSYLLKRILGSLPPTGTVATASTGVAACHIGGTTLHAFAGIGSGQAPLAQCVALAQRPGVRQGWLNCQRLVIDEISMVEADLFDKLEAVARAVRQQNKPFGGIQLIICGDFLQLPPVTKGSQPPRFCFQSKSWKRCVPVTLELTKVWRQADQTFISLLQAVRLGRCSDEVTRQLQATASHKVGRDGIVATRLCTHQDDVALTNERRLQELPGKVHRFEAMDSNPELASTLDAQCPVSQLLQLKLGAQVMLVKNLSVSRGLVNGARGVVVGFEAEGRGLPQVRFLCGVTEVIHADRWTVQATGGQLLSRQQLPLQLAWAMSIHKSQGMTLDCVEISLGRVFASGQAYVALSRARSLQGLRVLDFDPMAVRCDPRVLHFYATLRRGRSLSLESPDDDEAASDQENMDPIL
Assay: helicase assay after pre-incubation of SMI with FLhPIF1
Format: biochemical
Conditions: for effect of pre-incubation on inhibition of unwinding: 100 μM SMI with 100 nM FLhPIF1, 1 h at 22°C, then 1:10 dilution, compared to no pre-incubation; for pre-incubation time-course, inhibition of unwinding: 0–3 h pre-incubation, 100 nM FLhPIF1, 100 μM SMI, n = 4; for IC50: 2 h pre-incubation at 22°C with 100 nM FLhPIF1, then 1:10 dilution into helicase assay, read-out: IC50 for dsDNA unwinding by FLhPIF1 following pre-incubation
Experimental: Helicase activity was assayed using a radiometric strand displacement assay employing a partially single- and double-stranded substrate generated by annealing two oligonucleotides: 5′-(T)55-[…] and 5′-[…], as described previously ([19],[28]). The reaction buffer was 20 mM HEPES–NaOH pH 7.5, 20 mM NaCl, 5.5 mM MgCl2, 5 mM ATP, 1 mM DTT and 0.1 mg/ml BSA. SMIs (100 mM stocks in DMSO) were assayed at up to 2 mM without pre-incubation with FLhPIF1, unless otherwise stated. Reactions (0.1 nM substrate) were incubated at 37°C for 20 min, followed by addition of 0.2 volumes of 120 mM EDTA, 0.6% (w/v) SDS, 60% (v/v) glycerol and 0.1% (w/v) bromophenol blue before resolution of products by polyacrylamide gel electrophoresis (8%, 19:1 acrylamide:bis-acrylamide), 1× TBE (90 mM Tris–borate/2 mM EDTA, pH 8.3 with 0.05% (w/v) SDS buffer). Dried gels were exposed to phosphorimaging plates (Fujifilm) for imaging and quantification (Fuji FLA3000, image gauge V3.3 software). IC50 values were analysed by non-linear regression (variable slope) using GraphPad Prism.
First, we screened inhibitory activity of the SMIs listed in Table 1, following incubation of 100 nM FLhPIF1 with 100 μM SMI for 1 h at 22°C in the absence of substrates (ATP and DNA), before a 1:10 dilution into helicase reactions. […] Next, compounds 2, 5, 6 and 11, along with 4 and 1D were selected for analysis in a pre-incubation time-course (100 nM FLhPIF1, 100 μM SMI), up to 3 h before assaying helicase activity.
In parallel, IC50 values for inhibition of human UPF1 (hUPF1) helicase activity by the SMIs were also determined under the same conditions. UPF1-like SF1B helicases are the most closely related family of helicases to PIF1, with significant structural and mechanistic similarity ([52]).
Figure 6. SMI IC50 for dsDNA unwinding determined following pre-incubation. SMIs (0.0078–2 mM SMI) were incubated for 2 h at 22°C (100 nM FLhPIF1 or hUPF1) before dilution (1:10) in the standard helicase assay (0.1 nM DNA substrate). For 1D and 6, structures, electrophoresis of FLhPIF1 reaction product and graphs for IC50 value determination are shown. The graphed data include the activity of SMIs towards hUPF1 and IC50 values obtained are given. See Supplementary Figure S14 for the complete data set. TEXT PRINTED IN THE PICTURE: 1D: IC50 (μM): PIF1: 978 ± 221; IC50 (μM): UPF1: N.D. | 6: IC50 (μM): PIF1: 79.4 ± 16; IC50 (μM): UPF1: 1750 ± 426

Row | Compound | effect of pre-incubation on inhibition of unwinding | pre-incubation time-course, inhibition of unwinding | IC50 [µM]
1 | CC(=O)Nc1ccc(-c2csc(N)n2)cc1-c1ccc(C)cc1 [Compound 10] | significantly enhanced inhibitory activity |  | 
2 | CC(=O)c1ccc(-c2csc(N)n2)cc1 [Compound 2] | significantly enhanced inhibitory activity | increasing inhibition with increasing time of pre-incubation | 65 ± 25
3 | CC(=O)Nc1ccc(-c2csc(N)n2)cc1C1=CCNCC1 [Compound 11] | significantly enhanced inhibitory activity | increasing inhibition with increasing time of pre-incubation | 109 ± 47
4 | N#Cc1ccc(-c2csc(N)n2)cc1 [Compound 5] | significantly enhanced inhibitory activity | increasing inhibition with increasing time of pre-incubation | 67.4 ± 20
5 | Nc1nc(-c2ccc(C(=O)c3ccccc3)cc2)cs1 [Compound 6] | significantly enhanced inhibitory activity | increasing inhibition with increasing time of pre-incubation | 79.4 ± 16
